Laboratory results from PMC11624893 (Journal of the American Chemical Society, 2024).
Positions of bridges follow the written chain, without caps; N, C: chain ends. Non-standard residues stand in square brackets, D forms with d. Residues, ends and D or L forms follow the SMILES beside them. *: point of attachment. X1 = CC[C@H](C)CCCCC(=O)*; Dab = NCC[C@H](N)C(=O)O

How the values were obtained:
[1] = system: S. aureus 29213; assay: Minimum inhibitory concentration; type: cell-based; details: for Minimum Inhibitory Concentration (MIC): S. aureus 29213, Gram-positive, actively growing
[2] = system: E. coli 25922; assay: Minimum inhibitory concentration; type: cell-based; details: for Minimum Inhibitory Concentration (MIC): E. coli 25922, Gram-negative
[3] = system: A. baumannii 19606; assay: Minimum inhibitory concentration; type: cell-based; details: for Minimum Inhibitory Concentration (MIC): A. baumannii 19606, Gram-negative
[4] = system: P. aeruginosa PA14; assay: Minimum inhibitory concentration; type: cell-based; details: for Minimum Inhibitory Concentration (MIC): P. aeruginosa PA14, Gram-negative
[5] = system: E. faecium 51559; assay: microbe, parasite or virus in culture; details: Enterococcus faecium, VRE, read-out: Minimum Inhibitory Concentration (MIC)
[6] = system: K. pneumoniae 700603; assay: microbe, parasite or virus in culture; details: Klebsiella pneumoniae, 700603, read-out: Minimum Inhibitory Concentration (MIC)
[7] = system: M. avium 700898; assay: microbe, parasite or virus in culture; details: Mycobacterium avium, 700898, read-out: Minimum Inhibitory Concentration (MIC)
[8] = system: M. smegmatis 700084; assay: Minimum inhibitory concentration; type: cell-based; details: M. smegmatis 700084, mycobacteria
[9] = system: M. abscessus 19977; assay: Minimum inhibitory concentration; type: cell-based; details: M. abscessus 19977, mycobacteria
[10] = system: biofilm-associated S. aureus 29213; assay: Minimum biofilm eradication concentration; type: cell-based
[11] = system: biofilm-associated E. coli 25922; assay: Minimum biofilm eradication concentration; type: cell-based
[12] = system: biofilm-associated M. smegmatis 700084; assay: Minimum biofilm eradication concentration; type: cell-based
[13] = system: E. faecium 51559; details: E. faecium 51559, vanA-type resistance reference strain (VRE)
[14] = system: K. pneumoniae 700603; details: K. pneumoniae 700603, Gram-negative
[15] = system: M. avium 700898; details: M. avium 700898, mycobacteria
[16] = system: panel containing Gram-positive, Gram-negative, and mycobacterial microorganisms; assay: MIC assay, statements over the whole panel; type: cell-based; details: Gram-negative organisms (E. coli, A. baumannii, K. pneumoniae, P. aeruginosa)
[17] = system: S. aureus; assay: Peptidoglycan precursor accumulation, LC-MS; type: cell-based; details: treatment, cell lysis
[18] = system: M. smegmatis; assay: Peptidoglycan precursor accumulation, LC-MS; type: cell-based; details: treatment, cell lysis
[19] = system: S. aureus 29213; assay: Membrane permeability, propidium iodide; type: cell-based; details: S. aureus 29213, exponential-phase cells in HEPES-Glucose buffer
[20] = system: E. coli 25922; assay: Outer membrane permeability, 1-N-phenylnapthylamine; type: cell-based; details: E. coli 25922, 5e at 80 μM (10x MIC)
[21] = system: M. smegmatis 700084; assay: Ethidium bromide; type: cell-based; details: M. smegmatis 700084, 8 μM (1x MIC)
[22] = biofilm-associated S. aureus 29213, as given in the text
[23] = pre-formed biofilm of E. coli 25922, Table 2
[24] = pre-formed biofilms of E. coli 25922, as given in the text

| Molecule | Minimum Inhibitory Concentration (MIC) [1] | Minimum Inhibitory Concentration (MIC) [2] | Minimum Inhibitory Concentration (MIC) [3] | Minimum Inhibitory Concentration (MIC) [4] | Minimum Inhibitory Concentration (MIC) [8] | Minimum Inhibitory Concentration (MIC) [9] | minimum biofilm eradication concentration (MBEC) [10, 22] | minimum biofilm eradication concentration (MBEC) [11, 23] | minimum biofilm eradication concentration (MBEC) [11, 24] | Minimum Inhibitory Concentration (MIC) [13] | Minimum Inhibitory Concentration (MIC) [14] | Minimum Inhibitory Concentration (MIC) [15] | also measured |
| --- | --- | --- | --- | --- | --- | --- | --- | --- | --- | --- | --- | --- | --- |
| CN(C)C(=N)N=C(N)N [Metformin, metformin] |  |  |  |  |  |  |  |  |  |  |  |  | MIC ([1]; Staphylococcus aureus, 29213, read-out: Minimum Inhibitory Concentration (MIC)): > 512 µM; MIC ([2]; Escherichia coli, 25922, read-out: Minimum Inhibitory Concentration (MIC)): > 512 µM; MIC ([3]; Acinetobacter baumannii, 19606, read-out: Minimum Inhibitory Concentration (MIC)): > 512 µM; MIC ([4]; Pseudomonas aeruginosa, PA14, read-out: Minimum Inhibitory Concentration (MIC)): > 512 µM; MIC [5]: > 512 µM; MIC [6]: > 512 µM; MIC [7]: > 512 µM |
| CN[C@H](CC(C)C)C(=O)N[C@H]1C(=O)N[C@@H](CC(N)=O)C(=O)N[C@H]2C(=O)N[C@H]3C(=O)N[C@H](C(=O)N[C@H](C(=O)O)c4cc(O)cc(O)c4-c4cc3ccc4O)[C@H](O[C@H]3C[C@](C)(N)[C@@H](O)[C@H](C)O3)c3ccc(c(Cl)c3)Oc3cc2cc(c3O[C@@H]2O[C@H](CO)[C@@H](O)[C@H](O)[C@H]2O[C@H]2C[C@](C)(NCc3ccc(-c4ccc(Cl)cc4)cc3)[C@@H](O)[C@H](C)O2)Oc2ccc(cc2Cl)[C@H]1O [Oritavancin, oritavancin] | 1 µM | >512 µM | 512 µM | >512 µM | 32 µM | 128 µM | 2 to 4 µM | >128 µM | no activity | 2 µM | >512 µM | 128 µM | minimum biofilm eradication concentration (MBEC) ([10]; pre-formed biofilm of S. aureus 29213, Table 2): 2 to 4 µM; minimum biofilm eradication concentration (MBEC) ([12]; pre-formed biofilms of M. smegmatis 700084, as given in the text): > 256 µM |
| CC[C@H](C)CCCCC(=O)N[C@@H](CCN)C(=O)N[C@H](C(=O)N[C@@H](CCN)C(=O)N[C@H]1CCNC(=O)[C@H]([C@@H](C)O)NC(=O)[C@H](CCN)NC(=O)[C@H](CCN)NC(=O)[C@H](CC(C)C)NC(=O)[C@@H](Cc2ccccc2)NC(=O)[C@H](CCN)NC1=O)[C@@H](C)O [Polymyxin B, polymyxin B] (X1-[Dab]T[Dab][Dab][Dab][dF]L[Dab][Dab]T; lactam 4-C (inferred); N-terminus assumed) |  |  |  |  |  |  |  | 16 to 32 µM | 16 to 32 µM |  |  |  |  |
| CO[C@H]1/C=C/O[C@@]2(C)Oc3c(C)c(O)c4c(O)c(c(/C=N/N5CCN(C)CC5)c(O)c4c3C2=O)NC(=O)/C(C)=C\C=C\[C@H](C)[C@H](O)[C@@H](C)[C@@H](O)[C@@H](C)[C@H](OC(C)=O)[C@@H]1C [Rifampicin, rifampicin] |  |  |  |  |  |  | 16 to 32 µM |  |  |  |  |  |  |
| CN[C@H](CC(C)C)C(=O)N[C@H]1C(=O)N[C@@H](CC(N)=O)C(=O)N[C@H]2C(=O)N[C@H]3C(=O)N[C@H](C(=O)N[C@H](C(=O)O)c4cc(O)cc(O)c4-c4cc3ccc4O)[C@H](O)c3ccc(c(Cl)c3)Oc3cc2cc(c3O[C@@H]2O[C@H](CO)[C@@H](O)[C@H](O)[C@H]2O[C@H]2C[C@](C)(N)[C@H](O)[C@H](C)O2)Oc2ccc(cc2Cl)[C@H]1O [Vancomycin, vancomycin] | 1 µM | 128 to 256 µM | 64 to 128 µM | 256 to 512 µM | 8 µM | 32 to 64 µM | > 512 µM |  | 256 µM | 512 µM | 256 to 512 µM | 16 µM | typical MIC against Gram-negative organisms [16]: ≥ 128 µM; minimum biofilm eradication concentration (MBEC) ([12]; pre-formed biofilm of M. smegmatis 700084, Table 2): 64 µM; accumulation of peptidoglycan precursor (UDP-MurNAc pentapeptide) [17]: accumulation of the UDP-MurNAc pentapeptide; accumulation of peptidoglycan precursor (UDP-MurNGlyc pentapeptide) [18]: related UDP-MurNGlyc pentapeptide in M. smegmatis; PI fluorescence (membrane permeabilization) [19]: no increase in fluorescence; NPN fluorescence (outer membrane destabilization) [20]: no increase in fluorescence; EtBr fluorescence [21]: did not influence EtBr fluorescence |
| Gentamycin |  |  |  |  |  |  |  | 8 µM |  |  |  |  |  |
